Assays:
[1] = system: NOMO1; test: AUC of viability dose-response curve (% viability x log10 dose units); higher = less sensitive; details: 48 h
In short: (§1)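 Seeding of medium-adapted leukemia cells was at 500 or 1000 cells/well in 1536-well plates, followed by 48 h at 37°C with library compounds in DMSO at 11 threefold doses from 47 μM to 0.79 nM. CellTiter-Glo One luminescence was normalised per plate to DMSO and cell-free wells and fitted as a four-parameter log-logistic function of log10 dose. Area under the curve was integrated by trapezoidal rule, with curves exceeding full viability scaled and curves failing quality control removed.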

[2] = system: P12-Ichikawa; test: as above; details: 48 h
In short: as §1

[3] = system: SEM cells; test: as above; details: 48 h
In short: as §1

[4] = system: SEM cells; test: cell viability relative to DMSO control; higher = less cytotoxic; details: 48 h
In short: (§2)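 In 1536-well plates, 5 μl of leukemia cells were seeded per well: 500 cells/well for NOMO1 or SEM and 1000 cells/well for P12-Ichikawa. Each line had first been adapted for at least four passages in each medium. Library compounds in DMSO were pin-dosed at 11 threefold concentrations between 47 μM and 0.79 nM, and CellTiter-Glo One luminescence was read after 48 h at 37°C. Viability is a per-plate percentage relative to DMSO wells, with cell-free wells as background.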

[5] = system: NOMO1; test: as above; details: 48 h
In short: as §2

[6] = system: P12-Ichikawa; test: as above; details: HPLM + 10% dialyzed FBS, 48 h
In short: as §2

CC(=O)Nc1nc(C)c(-c2ccc(Cl)c([S+](=O)([O-])NCCO)c2)s1
AUC of viability dose-response curve
Details | [1] | [2] | [3]
HPLM + 10% dialyzed FBS | 364 | 374 | 366
RPMI 5 mM glucose + 10% FBS | 385 | 326 | 345
RPMI 5 mM glucose + 10% dialyzed FBS | 362 | 340 | 344

CC(C)Nc1cc(-c2c[nH]c(C(=O)N[C@H](CO)c3cccc(Cl)c3)c2)c(Cl)cn1
[4], HPLM + 10% dialyzed FBS
Details | cell viability [%]
0.000781 µM | 105
0.00234 µM | 118
0.00702 µM | 125
0.0211 µM | 123
0.0632 µM | 141
0.19 µM | 133
0.569 µM | 144
1.71 µM | 120
5.12 µM | 98.7
15.4 µM | 94.1
46.1 µM | 11.3

AUC of viability dose-response curve
Details | [1] | [2] | [3]
HPLM + 10% dialyzed FBS | 393 | 423 | 436
RPMI 5 mM glucose + 10% FBS | 383 | 396 | 422
RPMI 5 mM glucose + 10% dialyzed FBS | 371 | 394 | 400

COc1cc(C)c(Sc2cnc(NC(=O)c3ccc(CNC(C)C(C)(C)C)cc3)s2)cc1C(=O)N1CCN(C(C)=O)CC1 (stereo unspecified)
[5], RPMI 5 mM glucose + 10% FBS
Details | cell viability [%]
0.000781 µM | 116
0.00234 µM | 131
0.00702 µM | 124
0.0211 µM | 128
0.0632 µM | 127
0.19 µM | 124
0.569 µM | 132
1.71 µM | 115
5.12 µM | 114
15.4 µM | 115
46.1 µM | 17

Details | AUC of viability dose-response curve | cell viability [%]
[1], HPLM + 10% dialyzed FBS | 442 | –
[1], RPMI 5 mM glucose + 10% FBS | 453 | –
[1], RPMI 5 mM glucose + 10% dialyzed FBS | 437 | –
[2], HPLM + 10% dialyzed FBS | 447 | –
[2], RPMI 5 mM glucose + 10% FBS | 444 | –
[2], RPMI 5 mM glucose + 10% dialyzed FBS | 439 | –
[3], HPLM + 10% dialyzed FBS | 365 | –
[3], RPMI 5 mM glucose + 10% FBS | 358 | –
[3], RPMI 5 mM glucose + 10% dialyzed FBS | 350 | –
[6], 0.000781 µM | – | 125
[6], 0.00234 µM | – | 129
[6], 0.00702 µM | – | 120
[6], 0.0211 µM | – | 120
[6], 0.0632 µM | – | 122
[6], 0.19 µM | – | 127
[6], 0.569 µM | – | 115
[6], 1.71 µM | – | 110
[6], 5.12 µM | – | 109
[6], 15.4 µM | – | 101
[6], 46.1 µM | – | 7.33

O=C(Nc1nc2ccccc2n1CCN1CCOCC1)c1cccc([N+](=O)[O-])c1
AUC of viability dose-response curve
Details | [1] | [2] | [3]
HPLM + 10% dialyzed FBS | 447 | 462 | 474
RPMI 5 mM glucose + 10% FBS | 465 | 445 | 465
RPMI 5 mM glucose + 10% dialyzed FBS | 470 | 449 | 444

C[C@H]1[C@H](OC(=O)CCC(=O)O)O[C@@H]2O[C@@]3(C)CC[C@H]4[C@H](C)CC[C@@H]1[C@@]24OO3
AUC of viability dose-response curve
Details | [1] | [2] | [3]
HPLM + 10% dialyzed FBS | 350 | 372 | 393
RPMI 5 mM glucose + 10% FBS | 342 | 360 | 371
RPMI 5 mM glucose + 10% dialyzed FBS | 335 | 351 | 378

CC1=C(C=CC=C1)N2\C(=N/C3=C(C(=CC=C3)C)C2=O)C[N]4N=CC5=C4N=CN=C5N
cell viability [%]
Details | [4] | [5]
HPLM + 10% dialyzed FBS, 0.000781 µM | 99.5 | 114
HPLM + 10% dialyzed FBS, 0.00234 µM | 117 | 116
HPLM + 10% dialyzed FBS, 0.00702 µM | 119 | 147
HPLM + 10% dialyzed FBS, 0.0211 µM | 128 | 133
HPLM + 10% dialyzed FBS, 0.0632 µM | 124 | 148
HPLM + 10% dialyzed FBS, 0.19 µM | 128 | 147
HPLM + 10% dialyzed FBS, 0.569 µM | 121 | 49.6
HPLM + 10% dialyzed FBS, 1.71 µM | 123 | 44.3
HPLM + 10% dialyzed FBS, 5.12 µM | 125 | 40
HPLM + 10% dialyzed FBS, 15.4 µM | 117 | 38.5
HPLM + 10% dialyzed FBS, 46.1 µM | 121 | 35.2
RPMI 5 mM glucose + 10% FBS, 0.000781 µM | 100 | 122
RPMI 5 mM glucose + 10% FBS, 0.00234 µM | 124 | 126
RPMI 5 mM glucose + 10% FBS, 0.00702 µM | 141 | 121
RPMI 5 mM glucose + 10% FBS, 0.0211 µM | 113 | 143
RPMI 5 mM glucose + 10% FBS, 0.0632 µM | 113 | 125
RPMI 5 mM glucose + 10% FBS, 0.19 µM | 136 | 129
RPMI 5 mM glucose + 10% FBS, 0.569 µM | 135 | 33.4
RPMI 5 mM glucose + 10% FBS, 1.71 µM | 135 | 26
RPMI 5 mM glucose + 10% FBS, 5.12 µM | 124 | 26.2
RPMI 5 mM glucose + 10% FBS, 15.4 µM | 131 | 22.9
RPMI 5 mM glucose + 10% FBS, 46.1 µM | 119 | 22.7

AUC of viability dose-response curve
Details | [1] | [2] | [3]
HPLM + 10% dialyzed FBS | 329 | 368 | 469
RPMI 5 mM glucose + 10% FBS | 307 | 366 | 470
RPMI 5 mM glucose + 10% dialyzed FBS | 341 | 377 | 471

— the supplement of paper PMC11451515
